In test [1] the target is Receptor tyrosine-protein kinase erbB-2 (Homo sapiens, UniProt P04626). Briefly: Inhibition of autophosphorylation of human Her (p185erbB) tyrosine kinase expressed in SKOV-3 cells. It counts as functional, cell-based, SK-OV-3.
Test [2] deals with T1, Epidermal growth factor receptor (Homo sapiens, UniProt P00533). The test is described as follows: Inhibition of autophosphorylation of human epidermal growth factor-receptor (EGF-R) expressed in A431 cells. In kind it is functional, cell-based, A-431.
T1 sequence (P00533 whole entry): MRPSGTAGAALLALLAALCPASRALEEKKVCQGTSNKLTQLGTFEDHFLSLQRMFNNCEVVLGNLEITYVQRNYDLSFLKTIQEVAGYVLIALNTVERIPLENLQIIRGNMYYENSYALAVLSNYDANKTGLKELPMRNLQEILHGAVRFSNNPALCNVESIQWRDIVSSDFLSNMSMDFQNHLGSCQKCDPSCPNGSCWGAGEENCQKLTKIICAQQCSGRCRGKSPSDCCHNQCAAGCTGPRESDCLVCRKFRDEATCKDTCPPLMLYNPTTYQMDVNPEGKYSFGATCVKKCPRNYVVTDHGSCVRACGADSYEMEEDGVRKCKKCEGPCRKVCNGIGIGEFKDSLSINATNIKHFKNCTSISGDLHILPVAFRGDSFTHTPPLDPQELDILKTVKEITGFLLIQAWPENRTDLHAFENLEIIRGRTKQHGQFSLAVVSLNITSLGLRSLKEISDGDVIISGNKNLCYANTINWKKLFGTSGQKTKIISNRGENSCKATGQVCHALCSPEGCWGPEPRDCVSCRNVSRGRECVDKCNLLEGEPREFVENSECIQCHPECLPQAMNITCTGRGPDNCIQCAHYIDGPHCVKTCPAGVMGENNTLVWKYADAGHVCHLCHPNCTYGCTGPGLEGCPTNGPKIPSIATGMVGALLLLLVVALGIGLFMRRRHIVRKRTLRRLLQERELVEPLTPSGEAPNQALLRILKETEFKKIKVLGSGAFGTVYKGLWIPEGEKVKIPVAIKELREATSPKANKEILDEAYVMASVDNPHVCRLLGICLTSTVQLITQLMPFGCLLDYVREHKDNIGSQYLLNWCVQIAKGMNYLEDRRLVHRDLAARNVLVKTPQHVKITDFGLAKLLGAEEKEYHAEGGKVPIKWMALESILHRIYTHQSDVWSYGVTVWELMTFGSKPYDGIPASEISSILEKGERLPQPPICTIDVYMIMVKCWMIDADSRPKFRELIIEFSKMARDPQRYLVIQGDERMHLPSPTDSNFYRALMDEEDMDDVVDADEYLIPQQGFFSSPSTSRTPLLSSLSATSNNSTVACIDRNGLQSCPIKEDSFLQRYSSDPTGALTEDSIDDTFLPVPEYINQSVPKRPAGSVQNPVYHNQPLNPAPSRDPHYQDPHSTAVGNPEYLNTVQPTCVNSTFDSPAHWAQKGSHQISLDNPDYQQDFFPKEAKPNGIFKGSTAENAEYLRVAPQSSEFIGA
Test [3] addresses Platelet-derived growth factor receptor beta (Homo sapiens, UniProt P09619). The test is described as follows: Inhibitory activity towards tyrosine phosphorylation of PDGF-receptor beta kinase.
For test [4], the target named is Vascular endothelial growth factor receptor 2 (Homo sapiens, UniProt P35968). The test is described as follows: Inhibition of tyrosine phosphorylation in cells expressing human VEGFR2 (Flk-1/KDR) kinase.
Chain of Vascular endothelial growth factor receptor 2 (P35968 whole entry): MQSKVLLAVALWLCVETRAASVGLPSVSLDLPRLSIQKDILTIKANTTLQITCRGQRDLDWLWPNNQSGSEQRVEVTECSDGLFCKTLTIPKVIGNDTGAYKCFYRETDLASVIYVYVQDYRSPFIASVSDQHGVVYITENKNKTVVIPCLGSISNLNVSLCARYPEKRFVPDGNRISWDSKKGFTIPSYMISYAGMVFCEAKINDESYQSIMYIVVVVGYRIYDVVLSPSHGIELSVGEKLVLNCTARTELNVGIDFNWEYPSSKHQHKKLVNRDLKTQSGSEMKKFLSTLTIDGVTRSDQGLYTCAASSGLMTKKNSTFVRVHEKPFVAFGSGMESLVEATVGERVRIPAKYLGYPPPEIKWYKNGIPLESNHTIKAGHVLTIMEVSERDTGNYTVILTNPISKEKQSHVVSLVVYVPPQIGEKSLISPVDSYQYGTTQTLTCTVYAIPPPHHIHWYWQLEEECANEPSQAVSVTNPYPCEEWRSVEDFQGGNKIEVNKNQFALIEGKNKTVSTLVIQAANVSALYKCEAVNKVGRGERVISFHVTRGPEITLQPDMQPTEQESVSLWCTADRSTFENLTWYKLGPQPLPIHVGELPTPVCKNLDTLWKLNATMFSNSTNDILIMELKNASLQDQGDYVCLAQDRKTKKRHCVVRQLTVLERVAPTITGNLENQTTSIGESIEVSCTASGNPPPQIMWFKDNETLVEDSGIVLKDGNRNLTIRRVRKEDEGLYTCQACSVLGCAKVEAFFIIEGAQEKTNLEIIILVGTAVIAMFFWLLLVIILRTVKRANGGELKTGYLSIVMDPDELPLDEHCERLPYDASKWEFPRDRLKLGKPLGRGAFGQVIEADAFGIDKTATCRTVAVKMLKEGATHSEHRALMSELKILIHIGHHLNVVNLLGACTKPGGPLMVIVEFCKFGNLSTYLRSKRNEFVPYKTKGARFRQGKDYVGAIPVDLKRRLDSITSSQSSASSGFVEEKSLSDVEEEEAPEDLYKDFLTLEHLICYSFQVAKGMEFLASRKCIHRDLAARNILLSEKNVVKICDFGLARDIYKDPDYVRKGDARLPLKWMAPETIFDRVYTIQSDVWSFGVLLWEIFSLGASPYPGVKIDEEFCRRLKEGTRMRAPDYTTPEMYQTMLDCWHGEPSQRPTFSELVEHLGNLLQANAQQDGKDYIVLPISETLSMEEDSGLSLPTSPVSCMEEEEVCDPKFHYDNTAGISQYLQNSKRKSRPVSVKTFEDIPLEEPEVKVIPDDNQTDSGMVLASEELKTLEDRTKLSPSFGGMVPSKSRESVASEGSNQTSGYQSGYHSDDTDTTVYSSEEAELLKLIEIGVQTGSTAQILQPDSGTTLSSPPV
Test [5] deals with T1, Epidermal growth factor receptor. The test is described as follows: Inhibitory activity towards tyrosine phosphorylation for the epidermal growth factor-receptor kinase.

Structures are written as SMILES.

Chain of Receptor tyrosine-protein kinase erbB-2 (P04626 whole entry): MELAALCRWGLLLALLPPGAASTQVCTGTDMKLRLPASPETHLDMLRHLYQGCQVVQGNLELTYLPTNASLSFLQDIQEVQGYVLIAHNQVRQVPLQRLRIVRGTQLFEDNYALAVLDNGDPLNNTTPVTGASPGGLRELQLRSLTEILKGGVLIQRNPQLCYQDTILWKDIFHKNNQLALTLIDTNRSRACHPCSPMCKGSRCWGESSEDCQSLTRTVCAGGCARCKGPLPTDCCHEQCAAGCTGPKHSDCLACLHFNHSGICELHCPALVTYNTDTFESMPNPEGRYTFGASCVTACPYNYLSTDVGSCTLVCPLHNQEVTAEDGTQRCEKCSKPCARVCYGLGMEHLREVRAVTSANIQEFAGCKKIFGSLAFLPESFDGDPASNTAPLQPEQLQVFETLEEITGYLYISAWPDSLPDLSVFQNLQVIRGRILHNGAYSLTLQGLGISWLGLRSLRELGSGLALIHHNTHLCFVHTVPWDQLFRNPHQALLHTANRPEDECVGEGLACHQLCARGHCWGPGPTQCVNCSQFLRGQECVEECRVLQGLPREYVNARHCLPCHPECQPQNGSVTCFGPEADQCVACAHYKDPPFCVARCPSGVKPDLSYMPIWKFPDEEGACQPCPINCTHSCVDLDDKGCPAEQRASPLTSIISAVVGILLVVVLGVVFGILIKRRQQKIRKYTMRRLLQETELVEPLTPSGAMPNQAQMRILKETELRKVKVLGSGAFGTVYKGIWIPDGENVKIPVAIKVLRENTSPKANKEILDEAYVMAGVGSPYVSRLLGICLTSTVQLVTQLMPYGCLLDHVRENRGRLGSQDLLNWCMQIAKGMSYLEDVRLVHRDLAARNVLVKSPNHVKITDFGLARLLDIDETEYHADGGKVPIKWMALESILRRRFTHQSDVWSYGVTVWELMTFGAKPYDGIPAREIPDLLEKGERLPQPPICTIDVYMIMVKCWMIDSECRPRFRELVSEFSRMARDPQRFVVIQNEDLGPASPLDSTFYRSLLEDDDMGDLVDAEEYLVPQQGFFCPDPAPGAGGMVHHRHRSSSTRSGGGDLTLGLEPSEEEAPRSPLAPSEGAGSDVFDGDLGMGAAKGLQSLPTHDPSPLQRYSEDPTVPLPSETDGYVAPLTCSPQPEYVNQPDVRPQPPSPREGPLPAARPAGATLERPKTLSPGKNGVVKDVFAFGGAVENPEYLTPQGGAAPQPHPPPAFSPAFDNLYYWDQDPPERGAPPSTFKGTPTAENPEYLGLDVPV
Chain of Platelet-derived growth factor receptor beta (P09619 whole entry): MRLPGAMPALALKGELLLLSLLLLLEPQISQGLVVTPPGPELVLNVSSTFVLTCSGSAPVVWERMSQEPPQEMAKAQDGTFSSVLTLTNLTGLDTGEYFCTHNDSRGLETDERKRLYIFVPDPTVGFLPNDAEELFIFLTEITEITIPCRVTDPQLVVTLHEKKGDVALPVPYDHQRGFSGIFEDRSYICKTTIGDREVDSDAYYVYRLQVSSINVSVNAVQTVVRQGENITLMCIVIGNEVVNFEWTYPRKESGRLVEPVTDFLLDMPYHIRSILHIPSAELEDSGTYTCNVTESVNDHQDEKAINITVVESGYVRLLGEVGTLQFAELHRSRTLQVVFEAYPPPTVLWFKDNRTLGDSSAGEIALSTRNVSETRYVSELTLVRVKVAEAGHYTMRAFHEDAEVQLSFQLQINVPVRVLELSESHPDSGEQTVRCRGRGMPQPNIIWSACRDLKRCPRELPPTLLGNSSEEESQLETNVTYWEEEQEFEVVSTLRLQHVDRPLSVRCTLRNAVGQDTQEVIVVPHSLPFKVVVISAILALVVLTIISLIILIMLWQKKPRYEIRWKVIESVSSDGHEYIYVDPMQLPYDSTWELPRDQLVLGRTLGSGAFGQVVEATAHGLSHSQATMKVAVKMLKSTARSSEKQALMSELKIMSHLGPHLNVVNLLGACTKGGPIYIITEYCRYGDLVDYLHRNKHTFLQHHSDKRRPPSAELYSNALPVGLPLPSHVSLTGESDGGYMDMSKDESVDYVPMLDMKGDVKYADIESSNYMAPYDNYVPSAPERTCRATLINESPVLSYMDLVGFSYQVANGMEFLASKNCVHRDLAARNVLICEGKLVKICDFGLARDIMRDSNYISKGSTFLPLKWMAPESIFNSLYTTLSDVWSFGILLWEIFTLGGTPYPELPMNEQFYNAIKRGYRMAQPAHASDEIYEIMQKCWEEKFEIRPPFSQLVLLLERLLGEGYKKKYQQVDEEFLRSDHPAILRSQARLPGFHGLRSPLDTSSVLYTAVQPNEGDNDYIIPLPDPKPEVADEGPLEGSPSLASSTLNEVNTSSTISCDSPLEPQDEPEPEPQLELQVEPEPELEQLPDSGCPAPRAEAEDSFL

With `Cc1cc(C(=O)NCCN2CCOCC2)[nH]c1/C=C1\C(=O)Nc2ncnc(Nc3ccc4c(ccn4Cc4ccccc4)c3)c21`, the IC50 – broadly, the concentration at which inhibition is half-maximal – in test [1] is 0.04 µM; in test [2], 0.2 µM; in test [3] it was greater than 100 µM; in test [4], 3.47 µM; in test [5] it was 0.0011 µM.
Consider `O=C1Nc2ncnc(Nc3ccc(F)c(Cl)c3)c2/C1=C/c1ccc(C(=O)NCCN2CCOCC2)[nH]1`, for which the IC50 was greater than 100 µM in test [3], greater than 20 µM in test [4] and 0.022 µM in test [5].
Take `CCN(CC)CC(O)CNC(=O)c1cc(C)c(/C=C2\C(=O)Nc3ncnc(Nc4ccc(F)c(Cl)c4)c32)[nH]1` (stereo not drawn): the IC50 in test [4] was 0.36 µM; in test [5] it was 0.00045 µM.
`Cc1c(C(=O)N2CCN(C)CC2)c[nH]c1/C=C1\C(=O)Nc2ncnc(Nc3ccc(F)c(Cl)c3)c21`: the IC50 in test [3] is greater than 20 µM; in test [4], greater than 20 µM; in test [5] it was 0.41 µM.
In the case of `Cc1cc(C(=O)O)[nH]c1/C=C1\C(=O)Nc2ncnc(Nc3ccc(F)c(Cl)c3)c21`, the 50% inhibitory concentration (IC50) was greater than 5 µM in test [1]; greater than 5 µM in test [2]; greater than 20 µM in test [3]; 8.92 µM in test [4]; 0.029 µM in test [5].
With `Cc1cc(C(=O)N2CCN(C)CC2)[nH]c1/C=C1\C(=O)Nc2ncnc(Nc3ccc(F)c(Cl)c3)c21`, the IC50 in test [1] was 0.2 µM; in test [2], 0.1 µM; in test [3] it was greater than 20 µM; in test [4], greater than 20 µM; in test [5], 0.0028 µM.
For the compound `Cc1[nH]c(/C=C2\C(=O)Nc3ncnc(Nc4ccc(F)c(Cl)c4)c32)c(C)c1CCC(=O)O`, the values for the concentration for half-maximal inhibition (IC50) in test [3], in test [4] and in test [5] were greater than 20 µM, greater than 20 µM and 0.18 µM, respectively.
Consider `Cc1cc(CCC(=O)O)[nH]c1/C=C1\C(=O)Nc2ncnc(Nc3ccc(F)c(Cl)c3)c21`, for which the IC50 in test [3] is greater than 20 µM; in test [4] it was greater than 20 µM; in test [5] it was 0.0047 µM.
Take `CCN(CC)CCNC(=O)c1cc(C)c(/C=C2\C(=O)Nc3ncnc(Nc4ccc(Cl)cc4F)c32)[nH]1`: the concentration for half-maximal inhibition (IC50) in test [2] turned out to be 0.5 µM; in test [3], 5.62 µM; in test [4], 0.04 µM; in test [5], 0.45 µM.
On to `CCN(CC)CCNC(=O)c1c(C)[nH]c(/C=C2\C(=O)Nc3ncnc(Nc4ccc(F)c(Cl)c4)c32)c1C`, for which the half-inhibitory concentration (IC50) in test [3] was greater than 20 µM; in test [4] it was 3.47 µM; in test [5] it was 0.2 µM.
As to `Cc1cc(C(=O)NCCN2CCOCC2)[nH]c1/C=C1\C(=O)N(C)c2ncnc(Nc3ccc(F)c(Cl)c3)c21`, the results for the 50% inhibitory concentration (IC50) in test [3], in test [4] and in test [5] were greater than 20 µM, 10.1 µM and 5.31 µM, respectively.
In the case of `Cc1cc(C(=O)N2CCOCC2)[nH]c1/C=C1\C(=O)Nc2ncnc(Nc3ccc4c(c3)CCC4)c21`, the IC50 in test [1] is greater than 5 µM; in test [2], 5 µM; in test [3], greater than 20 µM; in test [4], 3.46 µM; in test [5], 1.41 µM.
In the same order, the values of `CCN1CCN(C(=O)c2cc(C)c(/C=C3\C(=O)Nc4ncnc(Nc5ccc(F)c(Cl)c5)c43)[nH]2)CC1` are 0.1 µM, 0.2 µM, greater than 20 µM, greater than 20 µM and 0.013 µM.
Regarding `Cc1cc(C(=O)N2CCOCC2)[nH]c1/C=C1\C(=O)Nc2ncnc(Nc3ccc4c(cnn4Cc4ccccc4)c3)c21`, the IC50 was 0.1 µM in test [1]; 0.1 µM in test [2]; greater than 10 µM in test [3]; 2.1 µM in test [4]; 0.0018 µM in test [5].
With `Cc1cc(C(=O)N2CCOCC2)[nH]c1/C=C1\C(=O)Nc2ncnc(Nc3ccc4c(ccn4Cc4ccccc4)c3)c21`, the IC50 in test [1] is 0.1 µM; in test [2], 0.1 µM; in test [3], greater than 20 µM; in test [4], 2.05 µM; in test [5], 0.0045 µM.
`Cc1cc(C(=O)N2CCOCC2)[nH]c1/C=C1\C(=O)Nc2ncnc(N3CCCCC3)c21`: the IC50 in test [3], in test [4] and in test [5] was greater than 20 µM each time.
As for `Cc1cc(C)c(/C=C2\C(=O)Nc3ncnc(Nc4ccc(F)c(Cl)c4)c32)[nH]1`, the IC50 in test [1] is 0.3 µM; in test [2], 0.3 µM; in test [3], greater than 100 µM; in test [4], 16.5 µM; in test [5] it was 0.041 µM.
For `Cc1cc(C(=O)N2CC(C)NC(C)C2)[nH]c1/C=C1\C(=O)Nc2ncnc(Nc3ccc(F)c(Cl)c3)c21` (stereo not drawn), the IC50 was 0.5 µM in test [1], greater than 20 µM in test [3] and 1.63 µM in test [4].
In the case of `CCN(CC)CCNC(=O)c1cc(C)c(/C=C2\C(=O)Nc3ncnc(Nc4ccc(F)c(Cl)c4)c32)[nH]1`, the IC50 in test [1] is 0.2 µM; in test [2] it was 0.2 µM; in test [4], 0.3 µM; in test [5], 0.0012 µM.
Turning to `Cc1cc(C(=O)NCCN2CCOCC2)[nH]c1/C=C1\C(=O)Nc2ncnc(Nc3ccc(F)c(Cl)c3)c21`, the half-inhibitory concentration (IC50) in test [1] is 0.1 µM; in test [3] it was greater than 100 µM; in test [4] it was greater than 20 µM.
Consider `Cc1cc(C)c(/C=C2\C(=O)N(C)c3ncnc(Nc4ccc(F)c(Cl)c4)c32)[nH]1`, for which the IC50 was greater than 20 µM in test [3], 5.82 µM in test [4] and greater than 20 µM in test [5].
In the case of `Cc1cc(C(=O)N2CCOCC2)[nH]c1/C=C1\C(=O)Nc2ncnc(Nc3ccc(F)c(Cl)c3)c21`, the half-inhibitory concentration (IC50) in test [1] was 0.4 µM; in test [2] it was 0.04 µM; in test [3] it was greater than 20 µM; in test [4] it was greater than 20 µM; in test [5] it was 0.17 µM.
With `Cc1cc(/C=C2\C(=O)Nc3ncnc(Nc4ccc(F)c(Cl)c4)c32)[nH]c1C(=O)N1CCN(C)CC1`, the IC50 in test [3] is greater than 20 µM; in test [4] it was greater than 20 µM; in test [5], 0.21 µM.
For `C#Cc1cccc(Nc2ncnc3c2/C(=C/c2[nH]c(C(=O)NCCN4CCOCC4)cc2C)C(=O)N3)c1`, the IC50 in test [1] was 0.04 µM; in test [2] it was 0.04 µM; in test [3], greater than 20 µM; in test [4], greater than 20 µM; in test [5], 0.018 µM.

(Values after ChEMBL document CHEMBL1134862, “Rational design of 4,5-disubstituted-5,7-dihydro-pyrrolo[2,3-d]pyrimidin-6-ones as a novel class of inhibitors of epidermal growth factor receptor (EGF-R) and Her2(p185(erbB)) tyrosine kinases” (Bioorg Med Chem Lett, 2002).)
